Measured values: US10851129B2, “Composition, crocins active site, and uses thereof” (Jinan University, priority 2016, dated 2020)

System: SH-SY5Y nerve cells
Experiment: Neuroprotection in SH-SY5Y cell damage model induced by L-glutamic acid (MTT)
Type: cell-based
Conditions: L-glutamic acid 160 mM, 24 h, effective rate %
Procedure: SH-SY5Y nerve cells were cultured in DMEM medium (containing 5% fetal calf serum by volume fraction) which were placed in an incubator containing 5% CO2 under 37° C. They were subcultured once every 3-4 days. Cells in logarithmic phase were used for test
SH-SY5Y cells were inoculated in a 96-well plate at a concentration of 5×10^3 and continued to culture for 24 h. […] 3 parallel wells were arranged for each concentration. They were continued to culture for 24 h. 24 h later, the supernatant was pipetted out and discarded. 100 μL MTT (0.5 mg/mL) was added into each well. They were further incubated for 4 h. Then the supernatant was pipetted out and discarded. 150 μL DMSO was added into each well. They were vibrated for 10 min. A wavelength of 570 nm was selected. The absorbance value was measured on a microplate reader^[13]. (effective rate %=(ODdrug−ODmodel)/(ODcontrol−ODmodel)*100).

SMILES | Neuroprotective effective rate (recovery of viability relative to glutamate model) (drug 10^−5 moL/L) [%] | Neuroprotective effective rate (recovery of viability relative to glutamate model) (drug 10^−6 moL/L) [%] | Neuroprotective effective rate (recovery of viability relative to glutamate model) (drug 10^−7 moL/L) [%]
CC(/C=C/C=C(\C)C(=O)O)=C\C=C\C=C(C)\C=C\C=C(/C)C(=O)O[C@@H]1OC(CO)[C@@H](O)C(O)C1O (stereo partly drawn) [Compound 9, crocetin mono-β-D-glucopyranoside] | 0.00 ± 0.00 | 0.00 ± 0.00 | 0.00 ± 0.00
CC(/C=C/C=C(\C)C(=O)O[C@@H]1OC(CO)[C@@H](O)C(O)C1O)=C\C=C\C=C(C)\C=C\C=C(/C)C(=O)O[C@@H]1OC(CO)[C@@H](O)C(O)C1O (stereo partly drawn) [Compound 3, crocetin di-β-D-glucopyranoside] | 0.00 ± 0.00 | 0.00 ± 0.00 | 0.00 ± 0.00
CC(/C=C/C=C(\C)C(=O)O[C@@H]1OC(CO)[C@@H](O)C(O)C1O)=C\C=C\C=C(C)\C=C\C=C(/C)C(=O)O[C@@H]1OC(CO[C@@H]2OC(CO)[C@@H](O)C(O)C2O)[C@@H](O)C(O)C1O (stereo partly drawn) [Compound 2, crocetin-β-D-glucopyranosyl-β-D-gentiobioside] | 0.00 ± 0.00 | 0.00 ± 0.00 | 0.00 ± 0.00
CC(/C=C/C=C(\C)C(=O)O[C@@H]1O[C@H](CO[C@@H]2O[C@H](CO)[C@@H](O)[C@H](O)[C@H]2O)[C@@H](O)[C@H](O)[C@H]1O)=C\C=C\C=C(C)\C=C\C=C(/C)C(=O)O[C@@H]1[C@H](O)C[C@@](O)(C(=O)O)C[C@H]1OC(=O)/C=C/c1ccc(O)c(O)c1 [Compound 5, neocrocin B] | 40.03 ± 3.91 | 27.63 ± 5.36 | 9.89 ± 2.93
